Measurements as given in article PMC6346587, “Glucose 6-phosphate dehydrogenase 6-phosphogluconolactonase: characterization of the Plasmodium vivax enzyme and inhibitor studies” (Malaria Journal, 2019).

Tests used:
recombinant hGrx1-roGFP2 = molecular target: T1, recombinant hGrx1-roGFP2 (Homo sapiens, UniProt P35754); assay: In vitro interaction with recombinant hGrx1-roGFP2 probe; format: biochemical; conditions: at the concentrations used in this study
T1 construct: made in house
Protocol: The sensor hGrx1–roGFP2 (human glutaredoxin 1-reduction–oxidation sensitive green fluorescent protein 2) was recently transiently expressed in 3D7 P. falciparum parasites by using the pARL1a(+) expression vector. Heterologous overexpression of hGrx1–roGFP2 for the evaluation of the in vitro interactions of ML304 and anti-malarial drugs with the recombinant redox probe was performed according to [35].
ML304 was used at concentrations of 10 nM to 1 mM in degassed standard reaction buffer (100 mM potassium phosphate, 1 mM EDTA, pH 7.0). […] The characterization of the in vitro interaction of hGrx1–roGFP2 with ML304 was performed according to Schuh et al..

[1] = system: P. falciparum NF54[hGrx1-roGFP2] glutathione redox ratio; assay: Cytosolic glutathione redox sensor hGrx1-roGFP2, fluorescence plate reader; format: cell-based, Plasmodium falciparum
Protocol: NF54^[hGrx1–roGFP2] parasites were washed and resuspended after incubation in pre-warmed Ringer’s solution to a concentration of […]. 10 µL of cells (1 × 10^6 iRBCs) were transferred to each well of a 384-well plate (black, flat bottom, Greiner Bio-One, Frickenhausen, Germany) and were measured with the plate reader Clariostar (BMG Labtech, Ortenberg, Germany) with excitation wavelengths at 405 nm and 475 nm (emission 510 nm). The gain of the 405 nm and 475 nm excitation wavelengths was adjusted to match the full dynamic range of the hGrx1–roGFP2 redox sensor. The 405/475 nm ratio was then calculated. The graphs were plotted using the GraphPad Prism 5 software (San Diego, CA, USA). A one-way ANOVA test with 95% confidence intervals with the Dunnett’s multiple comparison test (GraphPad Prism 5.0) was applied for statistical analysis of significance (*p < 0.05; **p < 0.01; ***p < 0.001).
Recently, the cytosolic glutathione redox sensor was stably integrated into NF54-attB parasites. The direct response of NF54^[hGrx1–roGFP2] to mid- and long-term exposures were determined using the time-efficient plate reader (Clariostar). […] As depicted in Fig. 7, ML304 oxidized the cytosol, leading to an increase of the 405/488 nm ratio of the probe in a concentration-dependent manner with significant differences after a 24 h incubation.

[2] = system: P. falciparum 3D7[hGrx1-roGFP2] cytosolic glutathione-dependent redox potential; assay: Cytosolic glutathione redox sensor hGrx1-roGFP2, confocal live cell imaging (CLSM); format: cell-based, Plasmodium falciparum; conditions: for Oxidation of the hGrx1-roGFP2 sensor: comparable to 1 mM DIA
Protocol: A Leica confocal system TCS SP5 inverted microscope equipped with the objective HCX PL APO 63.0 × 1.30 GLYC 37 °C UV connected to a 37 °C temperature chamber was used. The argon laser power was set to 20%; scanning was performed at 400 Hz frequency and at a 512 × 512 pixel resolution. The smart gain and smart offset were 950 V and −0.9%, respectively. With a sequential scan, the hGrx1–roGFP2 probe was excited at 405 nm and at 488 nm and emission was detected at 500–550 nm. Laser intensity was adjusted to match the full dynamic range of the probe to the dynamic range of the detector (405 nm: 10%, 488 nm: 4%). […] The Leica LAS AF Lite software for fluorescence analysis was used. The 405/488 nm ratio was calculated. The graphs were plotted using the GraphPad Prism 5 software (San Diego, CA, USA). For live cell imaging, only parasites showing fluorescent signals at both 405 and 488 nm excitation and an intact host cell were chosen.
The effect of ML304 and the anti-malarial drugs ATS and CQ as reference drugs on P. falciparum were investigated in 4 h and 24 h incubation experiments. […] For 4 h experiments, trophozoite stage parasites (26–30 h) of 3D7^[hGrx1–roGFP2] and NF54^[hGrx1–roGFP2] (6–8% parasitaemia) were magnetically enriched (Miltenyi Biotec, Germany), counted by using a Neubauer hemocytometer (Brand GmbH, Germany), and returned to cell culture (at 2.0 × 10^4 trophozoites μL^−1) for at least 1 h to recover. 1.0 × 10^6 cells in 100 μL cell culture medium were placed into LoBind tubes (Eppendorf, Hamburg, Germany) for 4 h incubation experiments. The parasites were treated with ML304 at 1 μM, 50 μM, and 100 μM, or with the anti-malarial drugs ATS and CQ at approximately 50 × EC50 for 4 h under cell culture conditions. Subsequently, free thiol groups were blocked with 2 mM N-ethylmaleimide (NEM) for 15 min at 37 °C. For 24 h experiments, a 5 mL culture (5% haematocrit, 6–8% parasitaemia) of ring stage parasites (6–10 h post invasion) was treated with ML304 at 1 μM, 5 μM, and 10 μΜ, or the anti-malarial drugs ATS and CQ at approximately 4 × EC50. Prior to enrichment, cysteines were blocked with 2 mM NEM for 15 min at 37 °C. For 4 h and 24 h experiments, cells were washed after incubation and resuspended in Ringer’s solution (122.5 mM NaCl, 5.4 mM KCl, 1.2 mM CaCl2, 0.8 mM MgCl2, 11 mM D-glucose, 25 mM HEPES, 1 mM NaH2PO4, pH 7.4). 50 μL of cells (1.0 × 10^6 cells 50^−1 μL^−1) were seeded onto poly-L-lysine-coated μ-Slides 18 well (flat) (Ibidi, Martinsried, Germany) and measured using CLSM (confocal laser scanning microscopy) with excitation wavelengths at 405 nm and 488 nm. […] Each experiment was carried out three times. Between 10 and 20 microscopy images were taken each time, resulting in at least 30 experimental values per concentration and incubation time. The obtained ratio values were normalized to the control value, which was set to 100. All experiments were carried out within 6 weeks after the appearance of transfectants. Mean and standard error of the mean (SEM) are shown. A one-way ANOVA test with 95% confidence intervals with the Dunnett’s multiple comparison test (GraphPad Prism 5.0) was applied for statistical analysis of significance (*p < 0.05; **p < 0.01; ***p < 0.001).

P. falciparum 3D7 = conditions: chloroquine-sensitive strain; cited from earlier work
[3] = system: cytosolic H2O2 levels of NF54-attB; parameters: method as in PMID 28874682; conditions: roGFP2-Orp1 probe, NF54-attB blood stages; cited from earlier work
Plasmodium gametocytes = conditions: cited from earlier work
[4] = system: human hepatocyte cell lines; parameters: method as in PMID 24501782; conditions: cited from earlier work

## CCN1CCC[C@@H]1CNC(=O)c1ccc2c(c1)NC(=O)c1cccc(C)c1S2 [ML304]
Recombinant hGrx1-roGFP2
  Direct interaction with recombinantly purified hGrx1-roGFP2 probe: excluded a direct interaction
[1]; 8.88 µM, 24 h, ring stage, p < 0.01
  Increase of 405/475 nm fluorescence ratio: threefold
[1]; 4 h incubation, trophozoite stage, 1 to 100 times EC50
  Effect on fluorescence ratio: concentration-dependent increase in fluorescence ratio
[2]; 5 µM, 24 h incubation
  Oxidation of the hGrx1-roGFP2 sensor: completely oxidize the sensor
[2]; 50 µM, 4 h incubation
  Oxidation of the hGrx1-roGFP2 sensor: completely oxidize the sensor
[2]; 4 h incubation, trophozoites, 1, 50 and 100 µM (p < 0.05 at 1 µM, p < 0.001 at 50 and 100 µM)
  Effect on 405/488 nm ratio of hGrx1-roGFP2: significant effects
[2]; 24 h incubation, ring stage (p < 0.05 at 1 µM, p < 0.001 at 50 µM and 100 µM as printed)
  Effect on 405/488 nm ratio of hGrx1-roGFP2: significantly increased
P. falciparum 3D7
  Active concentration on P. falciparum 3D7 in cell culture: lower than 1 µM
[3]
  Effect on cytosolic H2O2 levels: significantly increase
Plasmodium gametocytes
  Effect on viability of Plasmodium gametocytes: strongly impair the viability
  Interaction with methylene blue on late stage gametocytes: synergistic effects
[4]
  LD50 against human hepatocyte cell lines: > 50 µM
